In one data set the test system is pigs. Particulars: cited from earlier work.
The conditions of data set [1]: extrusion and oxidants, e.g. 16 hours at 80° C. with 10% hydrogen peroxide solution; cited from earlier work.
The conditions of data set [2]: cited from earlier work.
The target in data set [3] is T1, fusion protein containing the hormone-dependent activation domain of the human estrogen receptor alpha and the DNA binding domain of the yeast Gal4 protein (Homo sapiens, UniProt P03372).
T1 construct: expressed in transfected cells; host or cells: Saccharomyces cerevisiae YZHB817 (PJ69-4a derivative, pdr5 snq2) carrying expression vector pTK103
T1 sequence (P03372 311-595 limits assumed): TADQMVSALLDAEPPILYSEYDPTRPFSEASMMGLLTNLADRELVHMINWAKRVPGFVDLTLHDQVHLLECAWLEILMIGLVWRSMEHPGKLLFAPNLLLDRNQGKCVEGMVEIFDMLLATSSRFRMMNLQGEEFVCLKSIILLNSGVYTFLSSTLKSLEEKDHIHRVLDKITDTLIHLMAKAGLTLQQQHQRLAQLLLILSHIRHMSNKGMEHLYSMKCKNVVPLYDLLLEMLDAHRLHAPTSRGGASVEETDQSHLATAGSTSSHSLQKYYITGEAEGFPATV
The data set is classed as cell-based. The conditions noted are these: for Concentration necessary to express 7.5 relative units of beta-galactosidase: GAL7-lacZ reporter, 18 hours at 30° C. From the text: The purified metabolite iZOM as described in Example 2 was used to determine its toxicity, expressed by its estrogenic activity, and compared to that of zearalenone.
For measuring the estrogenic activity, a specially prepared reporter yeast strain, YZHB817 (Bachmann, H.: Phenotypic detection of zearalenone in Saccharomyces cerevisiae. Master thesis BOKU Vienna, 2003) was used. This strain is derived from yeast-two hybrid strain PJ69-4a (MATa trp1-901 leu2-3,112 ura3-52 his3-200 gal4-(deleted) gal80(deleted) LYS2::GAL1-HIS3 GAL2-ADE2 met2::GAL7-lacZ) (James et al. 1996, Genetics; 144(4), 1425-1436). PJ69-4a was further developed by the disruption of the ABC transporters PDR5 and SNQ2. […] This strain was subsequently transformed with an expression vector (pTK103) that triggers the production of a fusion protein containing the hormone-dependent activation domain of the human estrogen receptor alpha and the DNA binding domain of the yeast Gal4 protein, in order to obtain the strain YZHB817.
In the presence of estrogenic substances, the yeast strain YZHB817 induces the expression of the GAL7 lacZ reporter gene, whose product, the enzyme beta-galactosidase, is easy to measure by the hydrolyzation of the chromogenic substrate ONPG (ortho-nitrophenyl-beta-galactoside) at 420 nm (Current Protocols in Molecular Biology, Chapter 13, Yeast (Eds. Lundblad V, Struhl, K.)).
[…] of the estrogenic test solution (ZEN or iZOM) were dissolved in 50% ethanol, mixed with 1.9 ml of the yeast culture of strain […] in SC-TRP medium at a cell density of OD600=0.1, and incubated for 18 hours at 30° C. and 180 rpm. After this, the OD600 of the culture was determined, and the cell pellet (10 min, 13 krpm) of 1 ml was resuspended in […] Z buffer and permeabilized with 25 μl chloroform. […] The supernatant was measured at 420 nm, and the relative units (based on the used cell amount) were calculated as: RU=(OD420×1000)/(OD600×incubation time in min)

The subject of the next data set is mammals. Particulars: cited from earlier work.
The next data set has as its system bovine. Particulars: cited from earlier work.
For data set [4] the following is noted: cited from earlier work. The source holds these as a separate data set.
Data set [5] relates to polypeptide of SEQ ID No. 1. Put plainly: Metabolization of ZEN by yeast strain YZGA515 expressing the polypeptide of SEQ ID No. 1 (test setup), HPLC-MS. In kind it is cell-based, Saccharomyces cerevisiae. Particulars: expressed in yeast strain YZGA515. The text has this: The yeast strain YZGA515 (Saccharomyces cerevisiae modified by inactivation of the ABC transporter gene PDR5 (Poppenberger et al. 2003, J. Biol. Chem., 278 (48) 47905-14) for the enhanced absorption of zearalenone (ZEN)) was transformed by the plasmid pCS57 using standard techniques. pCS57 is a plasmid derived from the yeast expression plasmid pADH-FW (Mitterbauer et. al 2002, Appl. Environ. Microbiol.; 68 (3), 1336-1346) with LEU2 as selection marker and ADH1 promoter.
In the test setup, the yeast strain YZGA515 was transformed with the pCS57 vector additionally containing the polynucleotide of SEQ ID No. 4 as BamHI-Xhol fragment after the strongly constitutive ADH1 promoter (alcohol dehydrogenase 1). This enabled the formation of the polypeptide of SEQ ID No. 1.
The yeast strain YZGA515 with the empty vector (pADH-FW without the polynucleotide of SEQ ID No.4) was transformed as negative control.
The transgenic yeasts (test setup and negative control) were cultivated in SC-LEU medium (Sherman 1991, Methods Enzymol., 194, 3-21), centrifuged and resuspended in fresh SC-LEU medium at a concentration of 2 mg/l ZEN, wherein a cell density of OD600=4 was adjusted in both cases. […]
In a further test setup, the metabolite iZOM was additionally measured quantitatively. […]

Here are results for three molecules from patent US11136561B2, “Polypeptide for the enzymatic detoxification of zearalenone, isolated polynucleotide, and associated additive, use and method” (priority 2014, dated 2021).

With `C[C@H]1CCCC(=O)CCC/C=C/c2cc(O)cc(O)c2C(=O)O1` [ZEN, (2E,11D)-15,17-dihydroxy-11-methyl-12-oxabicyco[12.4.0]octadeca-1(18), 2,14,16-tetraene-7,13-dione], the “ZEN concentration in feeds that may lead to hyper-estrogenicity” value with pigs is given as “above 1.5 ppm”. In addition, in data set [1], the “Reduction of ZEN content” value was 83.9%. The “oral LD50” value in data set [2] is “up to 20,000 mg/kg body weight”. Further, the “Concentration necessary to express 7.5 relative units of beta-galactosidase” value in data set [3] was “approximately 45 ppb”. Moreover, the “ZEN concentration in feeds leading to development disorders” value in the data set with mammals is “above 0.5 ppm”. The “ZEN concentration made responsible for miscarriages” value with bovine was 12 ppm. Further, the “Time after oral administration at which ZEN is detectable in blood” value in data set [4] was 30 min.
As for `CC1CCCC(=O)OCCC/C=C/c2cc(O)cc(O)c2C(=O)O1` (stereo not shown) [iZOM], in data set [3], the “Concentration necessary to express 7.5 relative units of beta-galactosidase” value was “about 500 ppb”. Further, in data set [3] (toxicity expressed by estrogenic activity), the “Toxicity lower by a factor (than zearalenone)” value is reported as “about 100”.

B1: polypeptide of SEQ ID No. 1: monooxygenase converting the keto group in position 7 of zearalenone into an ester group (protein)
chain: MTLEAIPVPEETPAQTVPTAPLSEEEREALKHRYRAERDKRIREDGIKQYRSLEGLLDVDDTKDPYTPVKPREPLNDHVDFLFLGGGFAGLIVCSHLKKTGFNDFRIIESGGDFGGVWYWNRFPGAMCDTAAMVYLPLLEETGTVPSAKYVRGPEILAHAQRIARTFDLYPHALFHTHLESLTWDEEQGVWKVKTRQGDSFTATHVGMGTGPLNKPHLPGIPGIEKFKGKAMHTARWDFATTGGGWNGEVMEGLKDKRVGVIGTGATGIQAIPELGRDSGELFVFQRTPSAVAVRGNHPIDPEWFASLDKGWQTKWNRNFIQLMSSGMAENDYVRDGWTDGVKRITARMFAEAAKAGRDPSTLSFDDFLAAYHLSDDEYMTAVRNRTNEVVNDPKTADGLKAWYRQFCKRPCFHDEFLATFNRPTVHLVDTNGQGVTEVDETGVWANGQHYDLDIIVYATGFEFNSEWTYKSGMEVYGRDGLTLTQAWKDGMKTYHGMHINGFPNLFMLQFQQGSSLASNITSNYVDSGYTIAAILNKKKELGAKTVEVPADVQSKWIEHLLTANKGLIGGPECTPGYYNNEGQEEGLKEKLNGARYPAGSLAFFDYIAEWRTNGKFEGLAFDGKQIAVQ
modifications: Trichosporon mycotoxinivorans
notes: monooxygenase converting the keto group in position 7 of zearalenone into an ester group
For the molecule B1, the “Conversion of ZEN to iZOM” value in data set [5] is “able to convert ZEN to its metabolite iZOM”.
